Molecules are shown by their SMILES. Some results are limits rather than exact numbers.

In series [1] the test system is hippocampal neurons. Briefly: neuroprotection against Aβ-containing conditioned medium (7PA2) in primary hippocampal neurons. The series is classed as cell-based, rat. Conditions: 14 DIV neurons, 7PA2 medium, 16 hours, different concentrations. As for the experimental part:
To visualize dendritic spines, 14 DIV hippocampal neurons at low density (5,000 cells per 35 mm dish) were exposed to 7PA2 conditioned media (CM), which contains naturally secreted Aβ, or CHO control media or for 16 h, with or without cotreatment with the two inhibitor compounds, followed by immunocytochemistry with MAP2 and DAPI counterstaining.
To explore the potential biological effects of compound 22 in a TRPC3 related disease model, its neuroprotective ability in primary cultured neurons (14 DIV prepared from E17 rats as described) was evaluated. The effects on neuron dendritic morphology were measured by imaging. Mature hippocampal neurons (DIV=14) were treated with CHO control medium, or naturally secreted Aβ-containing conditioned medium (7PA2), or in combination with compound 22 or Pyr3 at different concentrations, for 16 hours, followed by immunocytochemistry using an antibody against MAP2 and DAPI (data not shown). […] Hippocampal neurons (DIV=14) were treated with compound 22 or Pyr3 alone at different concentrations, followed by immunocytochemistry staining with MAP2 and DAPI (data not shown).

Series [2] can be described thus: maximum tolerated dose / in vivo toxicity study in mice. The settings on record: 200 mg/kg/day IP for five consecutive days. On the procedure:
The in vivo study was performed in compliance with the NIH Animal Use Guidelines and protocol approved by the Institutional Animal Care and Use Committee (IACUC) at the University of Tennessee Health Science Center (UTHSC, Memphis, Tenn.). NSG mice at 8 weeks (n=2) and ICR mice at 12 weeks (n=3) were housed with a 12:12-hour light-dark cycle and fed a breeder chow diet. Daily IP injections of 200 mg/kg of compounds 22 or 79 were administered for five consecutive injections in five mice, respectively, which were followed to monitor the mortality rate. Body weights of the mice were recorded daily.
(§1) The metabolic stability of compound 22 was tested prior to the next phase of in vivo study. […] The maximum tolerated dose (MTD) study was subsequently performed to investigate its in vivo toxicity (FIGS. 4A and 4B). The second major limitation of Pyr3 is its toxicity due to its alkylating tail moiety. While replacing only the fast-metabolizing head ester group in Pyr3 with a stable amide (compound 79) improved metabolic stability, a single IP injection of compound 79 at 200 mg/kg killed all mice within 24 h.
Compound 79 is a metabolically stable version of Pyr3. Mice treated daily with compound 22 or compound 79 (n=5) for 5 consecutive days. All the mice were treated with either compound 22 or 79 at 200 mg/kg (IP). […]

Series [3] is described as follows: metabolic stability in rat liver microsomes. The class given is in vitro ADME. The settings on record: rat, microsomes. As for the experimental part: as §1
On the technique in general: Liver microsomes are a subcellular fraction often used to study metabolism.

For series [4], the target named is T1, rTRPV4 (Rattus norvegicus, UniProt Q9ERZ8).
T1 construct: expressed in transfected cells; host or cells: HEK293, transient transfection, pMO vector
The experiment in a line: whole-cell patch clamp selectivity, HEK 293 cells overexpressing rTRPV4. The series is classed as cell-based. Conditions: HEK293, with agonist, solutions without Ca2+, read-out: % of the current of rTRPV4 inhibited. As for the experimental part: Human embryonic kidney 293 (HEK293; catalog number CRL-1573) cells were cultured in Dulbecco's modified Eagle's medium (Invitrogen) supplemented with 10% fetal bovine serum and 1% penicillin-streptomycin at 37° C. and 5% CO2. Constructs cloned in pMO (a pcDNA3-modified vector) were co-transfected with GFP-pMO, using Lipofectamine 2000 (Invitrogen) according to the manufacturer's instructions. Macroscopic currents in the whole-cell patch clamp configuration were recorded 18-24 h post-transfection. The extracellular solution contained 140 mM NaCl, 6 mM KCl, 2 mM MgCl2, 10 mM HEPES, and 10 mM glucose (pH 7.4). Pipettes were made of borosilicate glass (outer diameter, 1.5 mm; inner diameter, 1.10 mm; Sutter Instruments) and fire-polished with a resistance between 2.8 and 4.0 megaohms when filled with an intracellular solution that contained 140 mM CsCl, 5 mM EGTA, and 10 mM HEPES, pH 7.2. Currents were recorded with a Multiclamp 700B amplifier (Molecular Devices) using a 1-s ramp from −100 to 100 mV. […] Data were acquired with a sampling rate of 20 kHz, low-pass filtered (10 kHz), and analyzed offline using Clampfit v10.4.2.0 (Molecular Devices). […]

T1 sequence (Q9ERZ8 whole entry): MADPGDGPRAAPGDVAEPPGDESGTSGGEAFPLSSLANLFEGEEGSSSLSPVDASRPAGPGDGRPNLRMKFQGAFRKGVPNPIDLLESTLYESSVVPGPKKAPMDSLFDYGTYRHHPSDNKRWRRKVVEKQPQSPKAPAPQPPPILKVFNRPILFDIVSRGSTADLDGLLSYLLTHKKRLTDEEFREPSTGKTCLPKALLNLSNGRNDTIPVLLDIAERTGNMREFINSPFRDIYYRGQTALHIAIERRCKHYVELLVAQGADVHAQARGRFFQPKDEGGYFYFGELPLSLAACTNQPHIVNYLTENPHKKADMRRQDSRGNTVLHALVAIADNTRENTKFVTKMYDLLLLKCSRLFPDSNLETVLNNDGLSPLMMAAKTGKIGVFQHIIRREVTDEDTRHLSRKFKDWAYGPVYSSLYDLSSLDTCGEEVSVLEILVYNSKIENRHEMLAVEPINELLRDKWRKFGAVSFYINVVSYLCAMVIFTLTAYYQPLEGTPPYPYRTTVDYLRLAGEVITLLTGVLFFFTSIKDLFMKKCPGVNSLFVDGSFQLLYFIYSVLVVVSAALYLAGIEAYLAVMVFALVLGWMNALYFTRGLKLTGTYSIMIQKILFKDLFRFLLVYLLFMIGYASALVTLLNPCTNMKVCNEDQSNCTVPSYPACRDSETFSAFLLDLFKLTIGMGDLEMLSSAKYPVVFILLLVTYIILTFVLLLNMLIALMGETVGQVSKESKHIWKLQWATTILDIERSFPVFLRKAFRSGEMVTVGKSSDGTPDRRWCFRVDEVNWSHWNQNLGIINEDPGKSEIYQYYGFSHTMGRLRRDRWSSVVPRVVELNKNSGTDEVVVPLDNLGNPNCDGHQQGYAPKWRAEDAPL

Consider `CCNC(=O)c1cnn(-c2ccc(-n3ccc(Cl)c(Cl)c3=O)cc2)c1C(F)(F)F` [Compound 22], for which the “protection against Aβ-induced damage to dendrites (MAP2/DAPI)” value in series [1] is “protect against Aβ-induced damage to dendrites”. In addition, the “acute toxicities / body weight loss” value in series [2] is “no acute toxicities or body weight loss”. The half-life in series [3] is over 4 h. In addition, the inhibition at 10 µM in series [4] was under 5%.

The term half-life denotes the time in which the quantity being followed falls by half.

The values are drawn from patent publication US20230265068A1, “TRANSIENT RECEPTOR POTENTIAL CANONICAL 3 INHIBITORS AND METHODS OF USE THEREOF” (University of Tennessee Research Foundation, priority 2020, published 2023).
